From patent US4727070A, “3-Propenzl cephalosporin isomer separation process and derivative” (Bristol-Myers Company, priority 1985, dated 1988)
Values belong to the compound of their own block, whether it stands above or below them.

Experiments:
Gram-negative = details: cited from earlier work
[1] = Solubility in organic solvents (methanol, acetone, methanol-acetone mixture); assay type: physicochemical; details: for solubility in methanol-acetone mixture: methanol-acetone containing 20% to 50% by volume methanol, room temperature or below
From the text: In carrying out the foregoing process, it is preferred to use sodium 2-ethylhexanoate as salt-forming reagent, but other reagents such as sodium acetate or the sodium salt of other carboxylic acids may be employed. A reaction inert organic solvent such as a liquid alkanol or ester, is preferably employed in combination with the ketone used as imidazolidinone-forming reagent as solvent. A minimal quantity of water may also be employed to facilitate dissolution. The preferred solvents are mixtures of methanol and acetone. […] Accordingly mixtures of these two solvents are employed to provide the desired differential solubility. Mixtures of methanol and acetone containing from 20% to 50% by volume of methanol are suitable. The antibiotic sodium salt 2,2-dimethylimidazolidinone derivative is insoluble in the methanol-acetone mixture at room temperature or below while the 2,2-dimethylimidazolidinone derivative sodium salt of the (E)-isomer is soluble. This difference in solubility provides a basis for the separation of these, otherwise very similar materials.

[2] = Solid state stability on storage (purity of sample); assay type: physicochemical; details: for remaining at 672 h: 4 Weeks
[3] = Aqueous solution stability (250 mg/ml) at room temperature; assay type: physicochemical; details: for pH of the aqueous solution: aqueous solution for parenteral injection
Water solubility = assay type: physicochemical

SMILES: C/C=C\C1=C(C(=O)O)N2C(=O)C(NC(=O)[C@H](N)c3ccc(O)cc3)[C@H]2SC1 (stereo partly drawn) [BMY-28100, 7-[D-2-amino-2-(4-hydroxyphenyl)acetamido]-3-[(Z)-1-propenyl]ceph-3-em-4-carboxylic acid]
- Gram-negative antibacterial activity compared to the (E)-isomer (Gram-negative): improved

- solubility in acetone [1]: substantially insoluble
- solubility in methanol [1]: very soluble
- solubility in methanol-acetone mixture [1]: soluble
SMILES: C/C=C/C1=C(C(=O)O)N2C(=O)C(N3C(=O)[C@@H](c4ccc(O)cc4)NC3(C)C)C2SC1 (some centres unmarked) [acetonide of BMY-28167]

- remaining at 24 h ([2]; 1 Day, 100 deg. C.): 80%
- remaining at 168 h ([2]; 1 Week, 70 deg. C.): 94%
- remaining at 672 h ([2]; 37 deg. C.): 100%
- remaining at 672 h ([2]; 45 deg. C.): 102%
- remaining at 672 h ([2]; 56 deg. C.): 98.6%
- time to 10% potency loss in aqueous solution ([3]; 250 mg/ml aqueous solution, room temperature, pH 7.2): approximately 2 hours
- pH of the aqueous solution [3]: 7.2
- water solubility (Water solubility): several hundred
- solubility in acetone [1]: substantially insoluble
- solubility in methanol [1]: very soluble
- solubility in methanol-acetone mixture [1]: insoluble
SMILES: C/C=C\C1=C(C(=O)O)N2C(=O)C(N3C(=O)[C@@H](c4ccc(O)cc4)NC3(C)C)[C@H]2SC1 (some centres unmarked) [sodium 7-[2,2-dimethyl-4-(4-hydroxyphenyl)-5-oxo-1-imidazolidinyl]-3-[(Z)-1-propenyl]ceph-3-em-4-carboxylate]

SMILES: C/C=C\C1=C(C(=O)[O-])N2C(=O)C(NC(=O)[C@H](N)c3ccc(O)cc3)[C@H]2SC1.[Na+] (stereo partly drawn) [sodium salt of the antibiotic, sodium 7-[D-2-amino-2-(4-hydroxyphenyl)acetamido]-3-((Z)-1-propenyl)ceph-3-em-4-carboxylate, reference compound]
- pH of the aqueous solution [3]: 8.2
- time to 10% potency loss in aqueous solution ([3]; sodium salt of the antibiotic per se, solution pH 8.2): 30 min
